Key:
Format in all cases: in vivo
[1] = test system: barnyardgrass (Echinochloa crus-galli, ECHCG); assay: Test A pre-emergence, barnyardgrass; conditions: after 13 d
Outline: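 Seeds sown in pots of standard soil and sprayed one day later, pre-emergence, at 15.625, 62.5 or 250 g/ha in acetone/water (50:50) with 0.5% Tween 20. Grown in glasshouse at 24/16 °C, 14 h light, 65% humidity. Damage scored after 13 d (0 none, 100 total).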

[2] = test system: corn (Zea mays, ZEAMX); assay: Test A post-emergence, corn; conditions: after 13 d
Outline: (§1)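 Plants sown in standard soil were grown 8 d in a glasshouse (24/16 °C day/night, 14 h light, 65% humidity), then sprayed with compound in acetone/water (50:50) with 0.5% Tween 20 at 15.625, 62.5 or 250 g/ha. Damage was scored after 13 d (0 = none, 100 = total).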

[3] = test system: barnyardgrass (Echinochloa crus-galli, ECHCG); assay: Test A post-emergence, barnyardgrass; conditions: after 13 d
Outline: as §1

[4] = test system: maize; assay: Test D pre-emergence, maize seed treated with a herbicide safener; conditions: ZEAMX, preemergent, 20 DAA
Outline: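 Herbicidal injury on safener-protected cereals: application timings were one day after sowing for pre-emergence and about 12 days of cultivation for post-emergence. Assessment came 20 DAA or 15 d later respectively, on a scale where 100 meant total damage.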

[5] = test system: plants; assay: Test D post-emergence, other plants of Tables D2 and D4; conditions: "Cereals" Postemergent, evaluated after 15 d
Outline: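 Damage was rated visually from 0 (none) to 100 (total), at 20 DAA for pre-emergence and 15 d for post-emergence. Plants grew from safener-treated seed in a glasshouse at 24/18° C. or 20/16° C. day/night, 65% humidity, watered twice daily.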

Structure (SMILES): CCn1nc([C@@H]2CN(C)C(=O)[C@H]2C(=O)Nc2cccc(F)c2F)c2cccc(F)c21 [Compound 14]
- damage to plant (100=total damage; 0=no damage) ECHCG ([1]; Pre-Emergence at 15.625 g/ha): 60
- damage to plant (100=total damage; 0=no damage) ECHCG ([1]; Pre-Emergence at 62.5 g/ha): 80
- damage to plant (100=total damage; 0=no damage) ECHCG ([1]; Pre-Emergence at 250 g/ha): 90
- damage to plant (100=total damage; 0=no damage) ZEAMX ([2]; Post-Emergence at 15.625 g/ha): 70
- damage to plant (100=total damage; 0=no damage) ZEAMX ([2]; Post-Emergence at 62.5 g/ha): 70
- damage to plant (100=total damage; 0=no damage) ZEAMX ([2]; Post-Emergence at 250 g/ha): 80
- damage to plant (100=total damage; 0=no damage) ECHCG ([3]; Post-Emergence at 15.625 g/ha): 80
- damage to plant (100=total damage; 0=no damage) ECHCG ([3]; Post-Emergence at 62.5 g/ha): 80
- damage to plant (100=total damage; 0=no damage) ECHCG ([3]; Post-Emergence at 250 g/ha): 80
- damage to plant (100=total damage to plant; 0=no damage to plant), ZEAMX ([4]; rate 15): 0
- damage to plant (100=total damage to plant; 0=no damage to plant), ZEAMX ([4]; rate 30): 0
- damage to plant (100=total damage to plant; 0=no damage to plant), ZEAMX ([4]; rate 60): 0
- damage to plant (100=total damage to plant; 0=no damage to plant), ZEAMX ([4]; rate 130): 10
- damage to plant (100=total damage to plant; 0=no damage to plant), ZEAMX ([4]; rate 250): 20
- damage to plant (100=total damage to plant; 0=no damage to plant), ZEAMX ([4]; rate 500): 50
- ALOMY damage rating (100=total damage to plant; 0=no damage to plant) ([5]; Rates 130): 40
- ALOMY damage rating (100=total damage to plant; 0=no damage to plant) ([5]; Rates 250): 60
- ALOMY damage rating (100=total damage to plant; 0=no damage to plant) ([5]; Rates 500): 70
- AVEFA damage rating (100=total damage to plant; 0=no damage to plant) ([5]; Rates 130): 30
- AVEFA damage rating (100=total damage to plant; 0=no damage to plant) ([5]; Rates 250): 70
- AVEFA damage rating (100=total damage to plant; 0=no damage to plant) ([5]; Rates 500): 80
- BEAVA damage rating (100=total damage to plant; 0=no damage to plant) ([5]; Rates 130): 30
- BEAVA damage rating (100=total damage to plant; 0=no damage to plant) ([5]; Rates 250): 30
- BEAVA damage rating (100=total damage to plant; 0=no damage to plant) ([5]; Rates 500): 20
- BROTE damage rating (100=total damage to plant; 0=no damage to plant) ([5]; Rates 130): 0
- BROTE damage rating (100=total damage to plant; 0=no damage to plant) ([5]; Rates 250): 10
- BROTE damage rating (100=total damage to plant; 0=no damage to plant) ([5]; Rates 500): 30
- BRSNN damage rating (100=total damage to plant; 0=no damage to plant) ([5]; Rates 130): 40
- BRSNN damage rating (100=total damage to plant; 0=no damage to plant) ([5]; Rates 250): 50
- BRSNN damage rating (100=total damage to plant; 0=no damage to plant) ([5]; Rates 500): 40
- CHEAL damage rating (100=total damage to plant; 0=no damage to plant) ([5]; Rates 130): 50
- CHEAL damage rating (100=total damage to plant; 0=no damage to plant) ([5]; Rates 500): 40
- GALAP damage rating (100=total damage to plant; 0=no damage to plant) ([5]; Rates 130): 0
- GALAP damage rating (100=total damage to plant; 0=no damage to plant) ([5]; Rates 250): 10
- GALAP damage rating (100=total damage to plant; 0=no damage to plant) ([5]; Rates 500): 20
- HORVW damage rating (100=total damage to plant; 0=no damage to plant) ([5]; Rates 130): 20
- HORVW damage rating (100=total damage to plant; 0=no damage to plant) ([5]; Rates 250): 70
- HORVW damage rating (100=total damage to plant; 0=no damage to plant) ([5]; Rates 500): 70
- KCHSC damage rating (100=total damage to plant; 0=no damage to plant) ([5]; Rates 130): 10
- KCHSC damage rating (100=total damage to plant; 0=no damage to plant) ([5]; Rates 250): 20
- KCHSC damage rating (100=total damage to plant; 0=no damage to plant) ([5]; Rates 500): 20
- LOLPE damage rating (100=total damage to plant; 0=no damage to plant) ([5]; Rates 130): 0
- LOLPE damage rating (100=total damage to plant; 0=no damage to plant) ([5]; Rates 250): 20
- LOLPE damage rating (100=total damage to plant; 0=no damage to plant) ([5]; Rates 500): 50
- POAAN damage rating (100=total damage to plant; 0=no damage to plant) ([5]; Rates 130): 80
- POAAN damage rating (100=total damage to plant; 0=no damage to plant) ([5]; Rates 250): 90
- POAAN damage rating (100=total damage to plant; 0=no damage to plant) ([5]; Rates 500): 90
- POLCO damage rating (100=total damage to plant; 0=no damage to plant) ([5]; Rates 130): 20
- POLCO damage rating (100=total damage to plant; 0=no damage to plant) ([5]; Rates 250): 30
- POLCO damage rating (100=total damage to plant; 0=no damage to plant) ([5]; Rates 500): 40
- STEME damage rating (100=total damage to plant; 0=no damage to plant) ([5]; STEME, Rates 250): 50

From patent publication US20220281848A1, “PYRAZOLE-SUBSTITUTED PYRROLIDINONES AS HERBICIDES” (FMC Corporation, priority 2019, published 2022)
